# Structures can show the parent of a compound that is named as a salt. Ends that are not written are not given here.
# What was measured:
# migraine = details: cited from earlier work
# facial blood flow [1] = details: marmoset, electrical stimulation of the trigeminal ganglion (Doods et al. 2000); cited from earlier work
# [2] = target: T1, recombinant human CL receptor/RAMP1 (Homo sapiens, UniProt O60894+Q16602); experiment: Recombinant receptor binding assay (125I-hCGRP); details: exemplary compounds of the invention
# T1 construct: expressed in transfected cells; membranes used
# T1 sequence (Q16602 23-461): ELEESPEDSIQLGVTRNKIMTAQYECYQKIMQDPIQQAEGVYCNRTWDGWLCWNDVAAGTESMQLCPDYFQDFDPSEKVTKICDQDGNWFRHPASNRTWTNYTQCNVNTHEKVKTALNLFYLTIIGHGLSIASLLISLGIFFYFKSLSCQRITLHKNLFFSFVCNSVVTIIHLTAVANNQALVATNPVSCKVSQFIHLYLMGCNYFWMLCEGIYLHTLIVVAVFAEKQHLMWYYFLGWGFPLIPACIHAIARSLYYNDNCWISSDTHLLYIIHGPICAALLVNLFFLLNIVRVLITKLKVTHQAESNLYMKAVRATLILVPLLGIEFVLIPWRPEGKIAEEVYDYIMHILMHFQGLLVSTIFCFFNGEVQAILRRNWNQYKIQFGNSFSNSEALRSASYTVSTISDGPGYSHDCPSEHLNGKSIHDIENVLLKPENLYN
# T1 sequence (O60894 27-148): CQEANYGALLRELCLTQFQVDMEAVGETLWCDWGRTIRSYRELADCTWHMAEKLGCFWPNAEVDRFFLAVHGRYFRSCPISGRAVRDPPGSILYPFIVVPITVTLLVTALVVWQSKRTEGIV
# Experimental: Human CL receptor (Genbank accession number L76380) was subcloned into the expression vector pIREShyg2 (BD Biosciences Clontech) as a 5′NheI and 3′ PmeI fragment. Human RAMP1 (Genbank accession number AJ001014) was subcloned into the expression vector pIRESpuro2 (BD Biosciences Clontech) as a 5′NheI and 3′NotI fragment. […] Cells were subcultured by treatment with 0.25% trypsin with 0.1% EDTA in HBSS. Stable cell line generation was accomplished by co-transfecting 10 μg of DNA with 30 μg Lipofectamine 2000 (Invitrogen) in 75 cm^2 flasks. CL receptor and RAMP1 expression constructs were co-transfected in equal amounts. Twenty-four hours after transfection the cells were diluted and selective medium (growth medium+300 μg/mL hygromycin and 1 μg/mL puromycin) was added the following day. A clonal cell line was generated by single cell deposition utilizing a FACS Vantage SE (Becton Dickinson). Growth medium was adjusted to 150 μg/mL hygromycin and 0.5 μg/mL puromycin for cell propagation.
# The cell suspension was disrupted with a laboratory homogenizer and centrifuged at 48,000 g to isolate membranes. The pellets were resuspended in harvest buffer plus 250 mM sucrose and stored at −70° C. […] Scintillation fluid was added and the plates were counted on a Topcount (Packard).
# middle meningeal artery = details: rats, electrical stimulation of the dura mater, prior administration (Williamson et al. 1997); cited from earlier work
# facial blood flow [3] = details: rat, trigeminal ganglion stimulation (Escott et al. 1995); cited from earlier work
compound,measurement,setting,value
NCCCC[C@H](NC(=O)[C@@H](Cc1cc(Br)c(O)c(Br)c1)NC(=O)N1CCC(N2Cc3ccccc3NC2=O)CC1)C(=O)N1CCN(c2ccncc2)CC1 [BIBN4096BS],effectiveness in treating acute attacks of migraine,migraine; clinical trials (Olesen et al. 2004),effective in treating acute attacks of migraine
same,effect on increase in facial blood flow,facial blood flow [1],could be blocked
"C[C@@H]1[C@H](c2c(F)ccc(F)c2F)C[C@H](NC(=O)c2cnc3c(c2)C[C@@]2(C3)C(=O)Nc3ncc(F)cc32)C(=O)N1CC(F)(F)F [Example 33, (6S)-5′-Fluoro-N-[(3S,5S,6R)-6-methyl-2-oxo-1-(2,2,2-trifluoroethyl)-5-(2,3,6-trifluorophenyl)piperidin-3-yl]-2′-oxo-1′,2′,5,7-tetrahydrospiro[cyclopenta[b]pyridine-6,3′-pyrrolo[2,3-b]pyridine]-3-carboxamide hydrochloride]",Ki,[2],11 pM
C[C@@H]1[C@H](c2cc(F)cc(F)c2F)C[C@H](NC(=O)c2cnc3c(c2)C[C@@]2(C3)C(=O)Nc3ncc(C#N)cc32)C(=O)N1CC(F)(F)F [Example 34],Ki,[2],66 pM
O=C(N[C@@H]1CC[C@@H](c2cccc(F)c2F)CN(CC(F)(F)F)C1=O)N1CCC(n2c(=O)[nH]c3ncccc32)CC1 [telcagepant],antimigraine effectiveness,migraine; phase III clinical trials (Ho et al. 2008; Connor et al. 2009),shown antimigraine effectiveness
"CGRP(8-37) (VTHRLAGLLSRSGGVVKNNFVPTNVGSKAF-NH2; ends and bridges not checked; UniProt P06881 90-119, looked up, fragment) [a peptide CGRP receptor antagonist]",effect on increase of middle meningeal artery diameter,middle meningeal artery,blocked
same,effect on increased facial blood flow,facial blood flow [3],inhibited

# — US8481556B2, “Piperidinone carboxamide azaindane CGRP receptor antagonists” (Merck, Sharp & Dohms, Corp., priority 2010, dated 2013)
